From publication PMC4774972, “Activity and Predicted Nephrotoxicity of Synthetic Antibiotics Based on Polymyxin B” (Journal of Medicinal Chemistry, 2016)
Converted amounts (≈) assume the structure as drawn. Read-outs that look alike come from different tables or passages of the source. Bridge positions count the residues as written; N and C are the ends. Square brackets hold non-standard residues; d marks the D form. Peptide text beside a SMILES is read from it. * marks the point of attachment. Phe(4-NH2) = Nc1ccc(C[C@H](N)C(=O)O)cc1; Octanoyl = CCCCCCCC(=O)*; Dab = NCC[C@H](N)C(=O)O

Key:
E. coli ATCC 25922 [1] = test: microbe, parasite or virus in culture; type: cell-based, Escherichia coli; conditions: MHB, 5 × 10^5 CFU/mL, read visually after 18 h at 37 °C
Procedure: (§1) Bacteria were either obtained from American Type Culture Collection (ATCC; Manassas, VA, USA) or independent academic clinical isolate collections, as listed in Table S2. Bacteria were cultured in nutrient broth (NB; Bacto Laboratories, catalog no. 234000) or Muller Hinton broth (MHB; Bacto Laboratories, catalog no. 211443) at 37 °C overnight with shaking (∼180 rpm). A sample of each culture was then diluted 50-fold in fresh MHB and incubated at 37 °C for 1.5–3 h with shaking (∼180 rpm). Compound stock solutions were prepared as 0.64 or 2.56 mg/mL in water. The compounds, at twice the final desired concentration, were serially diluted 2-fold across the wells of 96-well plates (Polystyrene, Corning, catalogue No. 3370). Mid log phase bacterial cultures (after 1.5–3 h incubation) were diluted to a final concentration of 5 × 10^5 colony forming units (CFU)/mL, and 50 μL was added to each well giving a final compound concentration range of 32 μg/mL to 0.015 μg/mL (128–0.06 μg/mL for colistin and polymyxin B against the polymyxin resistant clinical isolates). MICs were determined visually after 18 h of incubation at 37 °C, with the MIC defined as the lowest compound concentration at which no bacterial growth was visible.
(§2) Table S2. Bacterial strains used for Minimum Inhibitory Concentration (MIC) […]
(§3) Organism Strain Strain description Strain Source
(§4) Escherichia coli ATCC 25922 FDA strain Seattle 1946 ATCC
(§5) Klebsiella pneumoniae ATCC 13883 Control strain ATCC
(§6) Klebsiella pneumoniae ATCC 700603 Multi-drug resistant ATCC
(§7) Klebsiella pneumoniae BAA-2146 Metallo-beta-lactamase- ATCC
(§8) Acinetobacter baumannii ATCC 19606 Type strain ATCC
(§9) Pseudomonas aeruginosa ATCC 27853 Type strain ATCC
(§10) Pseudomonas aeruginosa FADDI-PA070 Clinical isolate, Nation and Li labs, polymyxin resistant Monash University
(§11) Clinical isolate, Wang Hengzhuang, Pseudomonas aeruginosa PA9704 polymyxin resistant University Hospital of […]
(§12) Ptyela Clinical isolate, Ilias Karaiskos and Acinetobacter baumannii Carbapenem & Helen Giamarellou
(§13) Clinical isolate, Medicine, Hygeia
(§14) Klebsiella pneumoniae Koprana Carbapenem, & General Hospital, […]
(§15) Clinical isolate, (Instituto Dante […]
(§16) polymyxin resistant Cardiologia, São […]

[2] = system: K. pneumoniae ATCC 700603, MDR; type: cell-based, Klebsiella pneumoniae; conditions: MHB, 5 × 10^5 CFU/mL, read visually after 18 h at 37 °C
Procedure: as §1, §2, §3, §4, §5, §6, §7, §8, §9, §10, §11, §12, §13, §14, §15, §16

[3] = system: K. pneumoniae ATTC BAA-2146, NDM-1 pos; type: cell-based, Klebsiella pneumoniae; conditions: MHB, 5 × 10^5 CFU/mL, read visually after 18 h at 37 °C
Procedure: as §1, §2, §3, §4, §5, §6, §7, §8, §9, §10, §11, §12, §13, §14, §15, §16

A. baumannii ATCC 19606 [4] = type: cell-based, Acinetobacter baumannii; conditions: MHB, 5 × 10^5 CFU/mL, read visually after 18 h at 37 °C
Procedure: as §1, §2, §3, §4, §5, §6, §7, §8, §9, §10, §11, §12, §13, §14, §15, §16

P. aeruginosa ATCC 27853 [5] = test: microbe, parasite or virus in culture; type: cell-based, Pseudomonas aeruginosa; conditions: MHB, 5 × 10^5 CFU/mL, read visually after 18 h at 37 °C
Procedure: as §1, §2, §3, §4, §5, §6, §7, §8, §9, §10, §11, §12, §13, §14, §15, §16

[6] = system: P. aeruginosa FADDI-PA070, PmxR; type: cell-based, Pseudomonas aeruginosa; conditions: polymyxin resistant clinical isolate; MHB, 5 × 10^5 CFU/mL, 18 h at 37 °C
[7] = system: P. aeruginosa PA9704, PmxR; type: cell-based, Pseudomonas aeruginosa; conditions: polymyxin resistant clinical isolate; MHB, 5 × 10^5 CFU/mL, 18 h at 37 °C
[8] = system: A. baumannii CI Ptyela 100734512:2, PmxR; test: microbe, parasite or virus in culture; type: cell-based, Acinetobacter baumannii; conditions: carbapenem & polymyxin resistant clinical isolate, MHB, 5 × 10^5 CFU/mL, 18 h at 37 °C
K. pneumoniae ATCC 13883 [9] = test: microbe, parasite or virus in culture; type: cell-based, Klebsiella pneumoniae; conditions: MHB, 5 × 10^5 CFU/mL, read visually after 18 h at 37 °C
[10] = system: K. pneumoniae CI 138-16357-20362, PmxR; test: microbe, parasite or virus in culture; type: cell-based, Klebsiella pneumoniae; conditions: carbapenem & polymyxin resistant clinical isolate, MHB, 5 × 10^5 CFU/mL, 18 h at 37 °C
[11] = system: K. pneumoniae CI Koprana 100650661:1, PmxR; test: microbe, parasite or virus in culture; type: cell-based, Klebsiella pneumoniae; conditions: carbapenem & polymyxin resistant clinical isolate, MHB, 5 × 10^5 CFU/mL, 18 h at 37 °C
[12] = system: S. aureus ATCC 25923, MSSA; test: microbe, parasite or virus in culture; type: cell-based, Staphylococcus aureus; conditions: MHB, 5 × 10^5 CFU/mL, read visually after 18 h at 37 °C
HEK293 cells = test: Cytotoxicity assay (resazurin assay); type: cell-based, human; conditions: 4000 cells/well, 24 h incubation with compound, fluorescence 560/590
HepG2 cells = test: Cytotoxicity assay (resazurin assay); type: cell-based, human; conditions: 4000 cells/well, 24 h incubation with compound, fluorescence 560/590
[13] = system: primary human renal proximal tubule epithelial (hPT) cells; test: Nephrotoxicity assay, LDH release; type: cell-based; conditions: primary human kidney cells
From the text: (§17) Primary human renal proximal tubule epithelial (hPT) cells were isolated and used for in vitro prediction of drug-induced nephrotoxicity[63],[64],[69] by measuring the release of metabolism enzymes, LDH and GGT, as previously described.[70]

[14] = system: primary human renal proximal tubule epithelial (hPT) cells; test: Nephrotoxicity assay, GGT release; type: cell-based; conditions: primary human kidney cells
From the text: as §17

A. baumannii ATCC 19606 [15] = conditions: MIC A. baumannii ATCC 19606 (µg/mL)
[16] = system: A. baumannii CI Ptyela 100734512:2, PmxR; conditions: MIC A. baumannii CI Ptyela 100734512:2, PmxR (µg/mL)
E. coli ATCC 25922 [17] = conditions: MIC E. coli ATCC 25922 (µg/mL)
K. pneumoniae ATCC 13883 [18] = conditions: MIC K. pneumoniae ATCC 13883 (µg/mL)
[19] = system: K. pneumoniae ATCC 700603, MDR; conditions: MIC K. pneumoniae ATCC 700603, MDR(µg/mL)
[20] = system: K. pneumoniae ATTC BAA-2146, NDM-1 pos; conditions: MIC K. pneumoniae ATTC BAA-2146, NDM-1 pos (µg/mL)
[21] = system: K. pneumoniae CI 138-16357-20362, PmxR; conditions: MIC K. pneumoniae CI 138-16357-20362, PmxR (µg/mL)
[22] = system: K. pneumoniae CI Koprana 100650661:1, PmxR; conditions: MIC K. pneumoniae CI Koprana 100650661:1, PmxR (µg/mL)
P. aeruginosa ATCC 27853 [23] = conditions: MIC P. aeruginosa ATCC 27853 (µg/mL)
[24] = system: P. aeruginosa FADDI-PA070, PmxR; conditions: MIC P. aeruginosa FADDI-PA070, PmxR (µg/mL)
[25] = system: P. aeruginosa PA9704, PmxR; conditions: MIC P. aeruginosa PA9704, PmxR (µg/mL)
[26] = system: S. aureus ATCC 25923, MSSA; conditions: MIC S. aureus ATCC 25923, MSSA (µg/mL)
HepG2 = conditions: CC50 HepG2 (µM)

## 6Me-C7CO/ 6Me-C6CO Dab Thr Dab Dab Dab D-Leu Leu Dab Dab (lariat or depsi) [Colistin 2, polymyxin E (colistin), macrocyclic lipodecapeptide antibiotic, D-Leu at position-6, reference compound]
E. coli ATCC 25922 [1]
  MIC E. coli ATCC 25922: 0.25 µg/mL
[2]
  MIC K. pneumoniae ATCC 700603, MDR: 0.25 µg/mL
[3]
  MIC K. pneumoniae ATTC BAA-2146, NDM-1 pos: 0.25 µg/mL
A. baumannii ATCC 19606 [4]
  MIC A. baumannii ATCC 19606: 0.25 µg/mL
P. aeruginosa ATCC 27853 [5]
  MIC P. aeruginosa ATCC 27853: 0.5 µg/mL
[6]
  MIC P. aeruginosa FADDI-PA070, PmxR: >32 µg/mL
[7]
  MIC P. aeruginosa PA9704, PmxR: 128 µg/mL
[8]
  MIC A. baumannii CI Ptyela 100734512:2, PmxR: >64 µg/mL
K. pneumoniae ATCC 13883 [9]
  MIC K. pneumoniae ATCC 13883: 0.25 µg/mL
[10]
  MIC K. pneumoniae CI 138-16357-20362, PmxR: 64 µg/mL
[11]
  MIC K. pneumoniae CI Koprana 100650661:1, PmxR: >128 µg/mL
[12]
  MIC S. aureus ATCC 25923, MSSA: >128 µg/mL
HEK293 cells
  HEK293 CC50: >300 µM
HepG2 cells
  HepG2 - CC50: >300 µM
[13]
  LDH release CC50: 25 µg/mL
[14]
  GGT release CC50: 48 µg/mL

## CC[C@H](C)CCCCC(=O)N[C@@H](CCN)C(=O)N[C@H](C(=O)N[C@@H](CCN)C(=O)N[C@H]1CCNC(=O)[C@H]([C@@H](C)O)NC(=O)[C@H](CCN)NC(=O)[C@H](CCN)NC(=O)[C@H](CC(C)C)NC(=O)[C@@H](Cc2ccccc2)NC(=O)[C@H](CCN)NC1=O)[C@@H](C)O [Polymyxin B 1, polymyxin B]
[2]
  MIC K. pneumoniae ATCC 700603, MDR: 0.5 µg/mL (≈ 0.415 µM)
[3]
  MIC K. pneumoniae ATTC BAA-2146, NDM-1 pos: 0.25 µg/mL (≈ 0.208 µM)
A. baumannii ATCC 19606 [4]
  MIC A. baumannii ATCC 19606: 0.25 µg/mL (≈ 0.208 µM)
P. aeruginosa ATCC 27853 [5]
  MIC P. aeruginosa ATCC 27853: 0.5 µg/mL (≈ 0.415 µM)
[6]
  MIC P. aeruginosa FADDI-PA070, PmxR: 32 µg/mL (≈ 26.6 µM)
[7]
  MIC P. aeruginosa PA9704, PmxR: 128 µg/mL (≈ 106 µM)
[8]
  MIC A. baumannii CI Ptyela 100734512:2, PmxR: 64 µg/mL (≈ 53.2 µM)
K. pneumoniae ATCC 13883 [9]
  MIC K. pneumoniae ATCC 13883: 1 µg/mL (≈ 0.831 µM)
[10]
  MIC K. pneumoniae CI 138-16357-20362, PmxR: 64 µg/mL (≈ 53.2 µM)
[11]
  MIC K. pneumoniae CI Koprana 100650661:1, PmxR: 64 µg/mL (≈ 53.2 µM)
[12]
  MIC S. aureus ATCC 25923, MSSA: >64 µg/mL
HEK293 cells
  HEK293 CC50: >300 µM
HepG2 cells
  HepG2 - CC50: >300 µM
[13]
  LDH release CC50: 23 µg/mL
[14]
  GGT release CC50: 177 µg/mL

## CCCCCCCC(=O)N[C@@H](CCN)C(=O)N[C@H](C(=O)N[C@@H](CCN)C(=O)N[C@H]1CCNC(=O)[C@H]([C@@H](C)O)NC(=O)[C@H](CCN)NC(=O)[C@H](CCN)NC(=O)[C@H](CC(C)C)NC(=O)[C@@H](Cc2ccccc2)NC(=O)[C@H](Cc2ccc(N)cc2)NC1=O)[C@@H](C)O [Compound 34] (Octanoyl-[Dab]T[Dab][Dab][Phe(4-NH2)][dF]L[Dab][Dab]T; lactam 4-C)
A. baumannii ATCC 19606 [15]
  MIC: > 32 µg/mL
[16]
  MIC: > 32 µg/mL
E. coli ATCC 25922 [17]
  MIC: > 32 µg/mL
K. pneumoniae ATCC 13883 [18]
  MIC: > 32 µg/mL
[19]
  MIC: > 32 µg/mL
[20]
  MIC: > 32 µg/mL
[21]
  MIC: > 32 µg/mL
[22]
  MIC: > 32 µg/mL
P. aeruginosa ATCC 27853 [23]
  MIC: > 32 µg/mL
[24]
  MIC: > 32 µg/mL
[25]
  MIC: > 32 µg/mL
[26]
  MIC: > 32 µg/mL
HepG2
  CC50: > 300 µM
[3]
  MIC K. pneumoniae ATTC BAA-2146, NDM-1 pos: >32 µg/mL
[10]
  MIC K. pneumoniae CI 138-16357-20362, PmxR: >32 µg/mL
[11]
  MIC K. pneumoniae CI Koprana 100650661:1, PmxR: >32 µg/mL

## CNC(C)C1CCC(N)C(OC2C(N)CC(N)C(OC3OCC(C)(O)C(NC)C3O)C2O)O1 (stereo not drawn) [Gentamicin, reference compound]
E. coli ATCC 25922 [1]; Escherichia coli, ATCC25922, 18 h
  MIC: 0.25 µg/mL (≈ 0.523 µM)
P. aeruginosa ATCC 27853 [5]; Pseudomonas aeruginosa, ATCC27853
  MIC: 1 µg/mL (≈ 2.09 µM)
[8]; Acinetobacter baumannii
  MIC: > 32 µg/mL
K. pneumoniae ATCC 13883 [9]; Klebsiella pneumoniae, ATCC13883
  MIC: 0.25 µg/mL (≈ 0.523 µM)
[10]; Klebsiella pneumoniae
  MIC: 1 µg/mL (≈ 2.09 µM)
[11]; Klebsiella pneumoniae
  MIC: > 32 µg/mL
HEK293 cells
  HEK293 CC50: >300 µM
HepG2 cells
  HepG2 - CC50: >300 µM
[13]
  LDH release CC50: 33 µg/mL
[14]
  GGT release CC50: 33 µg/mL
